Experimental data published in PubChem BioAssay (NCI).
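Compound exposure: 48 hours, 5 concentrations, 96-well plates. The concentration for 50% growth inhibition is given as GI50. The concentration for full growth arrest is given as TGI.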

What was measured:
Assay in all cases: NCI-60 cell line screen, 48 h
MOLT-4 leukemia = test system: MOLT-4 leukemia
NCI-H460 lung = test system: NCI-H460 lung
OVCAR-8 ovarian = test system: OVCAR-8 ovarian
PC-3 prostate = test system: PC-3 prostate
SK-OV-3 ovarian = test system: SK-OV-3 ovarian
ACHN renal = test system: ACHN renal
RPMI-8226 leukemia = test system: RPMI-8226 leukemia
UO-31 renal = test system: UO-31 renal
BT-549 breast = test system: BT-549 breast
HL-60(TB) leukemia = test system: HL-60(TB) leukemia

Row | Structure (SMILES) | TGI (MOLT-4 leukemia) | TGI (NCI-H460 lung) | TGI (OVCAR-8 ovarian) | TGI (PC-3 prostate) | TGI (SK-OV-3 ovarian) | TGI (ACHN renal) | TGI (RPMI-8226 leukemia) | TGI (UO-31 renal) | TGI (BT-549 breast) | TGI (HL-60(TB) leukemia) | GI50 (MOLT-4 leukemia) | GI50 (RPMI-8226 leukemia) | GI50 (NCI-H460 lung) | GI50 (PC-3 prostate) | GI50 (SK-OV-3 ovarian) | GI50 (ACHN renal) | GI50 (UO-31 renal) | GI50 (BT-549 breast) | GI50 (HL-60(TB) leukemia)
1 | Nc1nc(=O)n(C2OC(CO)C(O)C2O)c2ncc(-c3ccc(-c4ccccc4)cc3)nc12 (stereo unspecified) | > 100 µM | > 100 µM | > 100 µM | > 100 µM | > 100 µM | > 100 µM | > 100 µM | > 100 µM | > 100 µM | – | – | – | – | – | – | – | – | – | –
2 | COc1c(C)c(C/C=C(\C)CC/C=C(\C)CC/C=C(\C)CCC=C(C)C)c(OC)c2ccccc12 | > 100 µM | > 100 µM | > 100 µM | > 100 µM | > 100 µM | > 100 µM | – | > 100 µM | > 100 µM | – | – | – | – | – | – | – | – | – | –
3 | CN(Cc1cnc2nc(N)nc(N)c2n1)c1ccc(C(=O)NC(CCC(=O)NC(CC(P(=O)(O)O)P(=O)(O)O)C(=O)O)C(=O)O)cc1 (stereo unspecified) | > 100 µM | > 100 µM | > 100 µM | > 100 µM | > 100 µM | > 100 µM | – | > 100 µM | > 100 µM | – | – | – | – | – | – | – | – | – | –
4 | CC(=O)Oc1cc(OC(C)=O)c2c(C)cc(=O)oc2c1 | > 100 µM | – | > 100 µM | > 100 µM | > 100 µM | > 100 µM | > 100 µM | > 100 µM | – | – | – | – | – | – | – | – | – | – | –
5 | CCN(CC)CCOc1ccc(C(O)(Cc2ccc(OC)cc2)c2ccccc2)cc1 (stereo unspecified) | 38.4 µM | 51.9 µM | > 100 µM | – | 57.9 µM | 65.3 µM | 39.7 µM | 62 µM | – | 24.9 µM | – | – | – | – | – | – | – | – | –
6 | C[n+]1c2ccccc2c(/C=N\NS(=O)(=O)c2ccc(Cl)cc2)c2ccccc21 | > 100 µM | > 100 µM | > 100 µM | – | > 100 µM | > 100 µM | > 100 µM | > 100 µM | – | 88.4 µM | – | – | – | – | – | – | – | – | –
7 | O=[N+]([O-])c1ccc(N2N=C(c3ccc4ccccc4c3O)CC2c2ccc(Cl)cc2)c([N+](=O)[O-])c1 (stereo unspecified) | 49 µM | > 100 µM | > 100 µM | > 100 µM | > 100 µM | > 100 µM | 63.2 µM | > 100 µM | > 100 µM | – | – | – | – | – | – | – | – | – | –
8 | Nc1ccc2ccc(-c3ccc[nH]3)nc2n1 | – | > 100 µM | > 100 µM | > 100 µM | > 100 µM | > 100 µM | > 100 µM | > 100 µM | > 100 µM | – | – | – | – | – | – | – | – | – | –
9 | CC1=CCC[C@H]2[C@](C)(CC3=CC(=O)C(Sc4ccccc4)=CC3=O)[C@@H](C)CC[C@]12C | 6.03 µM | 42.9 µM | 26.4 µM | 82 µM | – | 35.3 µM | 46.1 µM | 29.1 µM | 34.1 µM | – | 2.59 µM | 20.2 µM | – | – | – | – | – | – | –
10 | CCCN(CCC)C1CCc2c(ccc3cc[nH]c23)C1 (stereo unspecified) | 96.7 µM | > 100 µM | > 100 µM | > 100 µM | > 100 µM | > 100 µM | > 100 µM | > 100 µM | > 100 µM | – | – | – | – | – | – | – | – | – | –
11 | O=C(O)CCc1ccc2c(c1)CC1(Cc3ccccc3C1)C2 | > 100 µM | – | > 100 µM | > 100 µM | > 100 µM | > 100 µM | > 100 µM | > 100 µM | – | – | – | – | – | – | – | – | – | – | –
12 | COc1ccc(CNc2nc3cc(C(F)(F)F)ccc3nc2-c2ccccc2)cc1OC | > 100 µM | 46.5 µM | > 100 µM | > 100 µM | > 100 µM | > 100 µM | – | > 100 µM | > 100 µM | > 100 µM | – | – | – | – | – | – | – | – | –
13 | Cc1c(O)c(OC2OC(CO)C(O)C(O)C2O)cc2c1C=C[C@@H]1[C@@]2(C)C(=O)C[C@]2(C)[C@@H]([C@@](C)(O)C(=O)CCC(C)(C)O)[C@H](O)C[C@@]12C (stereo partly specified) | 63.7 µM | 48 µM | > 100 µM | 44.5 µM | 42.1 µM | 36.2 µM | – | 44.8 µM | 49.5 µM | > 100 µM | – | – | – | – | – | – | – | – | –
14 | O=[N+]([O-])c1ccc([N+]2=NC(c3ccccc3)=NN(c3ccccc3)C2)cc1 | > 100 µM | > 100 µM | > 100 µM | – | > 100 µM | > 100 µM | > 100 µM | > 100 µM | – | > 100 µM | – | – | – | – | – | – | – | – | –
15 | CN(C)c1ccc(/C=C/C(=O)O)cc1 | > 100 µM | > 100 µM | > 100 µM | – | > 100 µM | > 100 µM | > 100 µM | > 100 µM | – | > 100 µM | – | – | – | – | – | – | – | – | –
16 | Clc1ccc(C2CC(c3cccc(Nc4ccncc4)c3)=NN2c2cc(Cl)cc(Cl)c2)cc1 (stereo unspecified) | 5.01 µM | 4.03 µM | – | 3.29 µM | 3.83 µM | 2.98 µM | – | 2.77 µM | 3.57 µM | 5.05 µM | 2.17 µM | – | 1.97 µM | 1.69 µM | 1.89 µM | 1.61 µM | 1.34 µM | 1.85 µM | 2.2 µM
